Data: patent EP2331496B1, “USE OF AN N-ACYL AMINO ACID SELECTED FROM AMONG N-PALMITOYL ALANINE, N-PALMITOYL GLYCINE, AND N-PALMITOYL ISOLEUCINE AS A REGULATING ACTIVE AGENT OF THE GENETIC PROFILE OF SENESCENT REPLICATING FIBROBLASTS OF THE HUMAN SKIN DERMIS” (Societe D'Exploitation De Produits Pour Les Industries …, priority 2008, dated 2010)

What was measured:
[1] = system: gène codant la dermatopontine (DPT); test: Q-PCR gene expression in replicative senescent human dermal fibroblasts: DPT; assay type: cell-based, humains; details: aged fibroblasts from adult dermis (16 passages), cultured 96 h with the substance, compared with young cells (8 passages, 100 %)
Source text: (§1) Des fibroblastes humains normaux issus de derme adulte et vieillis de manière accélérée (16 passages en culture) ou non (8 passages en culture) ont été cultivés en présence ou non de chacun des quatre N-acyl amino acides suivants : N-palmitoyl glycine, N-palmitoyl alanine, N-palmitoyl isoleucine et N-cocoyl alanine pendant 96 heures. A la fin de l'expérience, les cellules ont été lavées et extraites pour l'analyse génomique. Cette dernière a été réalisée par Q-PCR ("Quantitative Polymerase Chain Reaction").
(§2) Pour chacun des diagrammes de ces figures, les résultats sont exprimés en pourcentage de variation des niveaux relatifs d'expression génique par rapport aux cellules jeunes (100 %), les pourcentages en haut des histogrammes expriment les pourcentages de restauration et les abréviations indiquées sont conformes à la nomenclature officielle Genbank.

[2] = system: gène codant la métallo protéinase MMP-1; test: Q-PCR gene expression in replicative senescent human dermal fibroblasts: MMP-1; assay type: cell-based, humains; details: aged fibroblasts from adult dermis (16 passages), cultured 96 h with the substance, compared with young cells (8 passages, 100 %)
Source text: as §1, §2

[3] = system: sujets caucasiens âgés de 45 ans à 76 ans et présentant des rides de vieillissement cutané; test: In vivo anti-wrinkle efficacy, topical gel-cream on the eye contour (crow's feet); design: species or system humain; details: 1% gel-cream, topical twice daily on the face, crow's feet zone, 42 days, about 20 volunteers/group; results expressed relative to a commercial reference lipopeptide product
Source text: Les N-acyl amino acides testés ont été formulés en gel-crème à 1% dans le couple d'émulsionnants MONTANOV™ 202, MONTANOV™ 82, l'épaississant SEPIPLUS™ 400 ainsi que le MONTANOX™ 60D, afin d'effectuer des applications topiques biquotidiennes sur le visage de sujets caucasiens âgés de 45 ans à 76 ans et présentant des rides de vieillissement cutané (environ 20 volontaires/groupe). Un produit lipopeptidique commercial de référence a également été testé selon le même protocole expérimental.
La région anatomique choisie pour cette étude était la zone du contour de l'oeil (patte d'oie).
La durée du traitement a été de 42 jours.
Les résultats ont été exprimés en termes de surface ridée totale et de nombre de rides par rapport à un produit lipopeptidique commercial de référence.

[4] = system: gène codant le collagène de type I (COL1A1); test: Q-PCR gene expression in replicative senescent human dermal fibroblasts: COL1A1; assay type: cell-based, humains; details: aged fibroblasts from adult dermis (16 passages), cultured 96 h with the substance, compared with young cells (8 passages, 100 %)
Source text: as §1, §2

[5] = system: gène codant la cytokine pro-inflammatoire IL-6; test: Q-PCR gene expression in replicative senescent human dermal fibroblasts: IL-6; assay type: cell-based, humains; details: aged fibroblasts from adult dermis (16 passages), cultured 96 h with the substance, compared with young cells (8 passages, 100 %)
Source text: as §1, §2

[6] = system: gène codant la pleiotrophine (PTN); test: Q-PCR gene expression in replicative senescent human dermal fibroblasts: PTN; assay type: cell-based, humains; details: aged fibroblasts from adult dermis (16 passages), cultured 96 h with the substance, compared with young cells (8 passages, 100 %)
Source text: as §1, §2

[7] = system: gène codant le nidogène (NID); test: Q-PCR gene expression in replicative senescent human dermal fibroblasts: NID; assay type: cell-based, humains; details: aged fibroblasts from adult dermis (16 passages), cultured 96 h with the substance, compared with young cells (8 passages, 100 %)
Source text: as §1, §2

[8] = system: gène codant la protéine de choc thermique (HSP 90A); test: Q-PCR gene expression in replicative senescent human dermal fibroblasts: HSP 90A; assay type: cell-based, humains; details: aged fibroblasts from adult dermis (16 passages), cultured 96 h with the substance, compared with young cells (8 passages, 100 %)
Source text: as §1, §2

[9] = system: gène codant la tenascine C (TNC); test: Q-PCR gene expression in replicative senescent human dermal fibroblasts: TNC; assay type: cell-based, humains; details: aged fibroblasts from adult dermis (16 passages), cultured 96 h with the substance, compared with young cells (8 passages, 100 %)
Source text: as §1, §2

[10] = system: gène codant la Serpine 1H (HSP47); test: Q-PCR gene expression in replicative senescent human dermal fibroblasts: Serpine 1H (HSP47); assay type: cell-based, humains; details: aged fibroblasts from adult dermis (16 passages), cultured 96 h with the substance, compared with young cells (8 passages, 100 %)
Source text: as §1, §2

[11] = system: gène codant le biglycane (BGN); test: Q-PCR gene expression in replicative senescent human dermal fibroblasts: BGN; assay type: cell-based, humains; details: aged fibroblasts from adult dermis (16 passages), cultured 96 h with the substance, compared with young cells (8 passages, 100 %)
Source text: as §1, §2

[12] = system: gène codant la Serpine 2B; test: Q-PCR gene expression in replicative senescent human dermal fibroblasts: Serpine 2B; assay type: cell-based, humains; details: aged fibroblasts from adult dermis (16 passages), cultured 96 h with the substance, compared with young cells (8 passages, 100 %)
Source text: as §1, §2

gène codant la vimentine = test: Q-PCR gene expression in replicative senescent human dermal fibroblasts: vimentine; assay type: cell-based, humains; details: aged fibroblasts from adult dermis (16 passages), cultured 96 h with the substance, compared with young cells (8 passages, 100 %)
Source text: as §1, §2

| niveau d'expression du gène codant la métallo protéinase MMP-1 [2] | Compound | niveau d'expression du gène codant la dermatopontine (DPT) [1] | diminution de la surface ridée totale [3] [%] | niveau d'expression du gène codant le collagène de type I (COL1A1) [4] | niveau d'expression du gène codant la cytokine pro-inflammatoire IL-6 [5] | niveau d'expression du gène codant la pleiotrophine (PTN) [6] | diminution du nombre de rides [3] [%] | niveau d'expression du gène codant le nidogène (NID) [7] | niveau d'expression du gène codant la protéine de choc thermique (HSP 90A) [8] | niveau d'expression du gène codant la tenascine C (TNC) [9] | niveau d'expression du gène codant la Serpine 1H (HSP47) [10] | niveau d'expression du gène codant le biglycane (BGN) [11] | niveau d'expression du gène codant la Serpine 2B [12] | niveau d'expression du gène codant la vimentine (gène codant la vimentine) |
| --- | --- | --- | --- | --- | --- | --- | --- | --- | --- | --- | --- | --- | --- | --- |
| diminution du niveau d'expression | CCCCCCCCCCCCCCCC(=O)N[C@@H](C)C(=O)O [N-palmitoyl alanine] | augmentation du niveau d'expression | 15 | augmentation du niveau d'expression | diminution du niveau d'expression | – | – | – | – | – | – | – | – | – |
| diminution du niveau d'expression | CCCCCCCCCCCCCCCC(=O)NCC(=O)O [N-palmitoyl glycine] | augmentation du niveau d'expression | – | – | diminution du niveau d'expression | augmentation du niveau d'expression | 35 | augmentation du niveau d'expression | augmentation du niveau d'expression | augmentation du niveau d'expression | – | – | – | – |
| – | CCCCCCCCCCCCCCCC(=O)N[C@H](C(=O)O)[C@@H](C)CC [N-palmitoyl isoleucine] | augmentation du niveau d'expression | – | augmentation du niveau d'expression | diminution du niveau d'expression | augmentation du niveau d'expression | 40 | augmentation du niveau d'expression | augmentation du niveau d'expression | augmentation du niveau d'expression | augmentation du niveau d'expression | augmentation du niveau d'expression | diminution du niveau d'expression | augmentation du niveau d'expression |
